Results: paper PMC9710782, “Plantaricin NC8 αβ rapidly and efficiently inhibits flaviviruses and SARS-CoV-2 by disrupting their envelopes” (PLOS ONE, 2022)

Legend:
LGTV = system: LGTV; set-up: species or system Langat virus
SARS-CoV-2 = SARS-CoV-2 virus inhibition (plaque) assay; assay type: cell-based, Severe Acute Respiratory Syndrome Coronavirus 2; conditions: read-out: concentration for 50% reduction of PFU / viral load (SARS-CoV-2)
IAV (H1N1/CApdm09) = assay: Influenza A virus inhibition (plaque) assay; assay type: cell-based; conditions: read-out: concentration required to suppress IAV (by 50%)
[1] = system: Langat virus strain TP21 (LGTV); assay type: cell-based; conditions: n = 4

Row | Sequence | permeabilization of LGTV particles (Sytox Green staining), single peptide (LGTV) | IC50 (SARS-CoV-2) [nM] | IC50 (IAV (H1N1/CApdm09)) [nM] | effect on virus infectivity (LGTV viral load) [1]
1 | SVPTSVYTLGIKILWSAYKHRKTIEKSFNKGFYH [D-PLNC8 β] | permeabilized | ~500 | ~500 | 
2 | LLGDFFRKSKEKIGKEFKRIVQRIKDFLRNLVPRTES [LL-37, human cathelicidin-derived antimicrobial peptide used as a control, reference compound] |  |  |  | did not affect virus infectivity
3 | DLTTKLWSSWGYYLGKKARWNLKHPYVQF [D-PLNC8 α] | not as efficient |  |  | 
